Test results: PubChem BioAssay (NCI)
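A five-concentration, 48-hour dose response in 96-well plates underlies each endpoint, interpolated linearly between surrounding concentrations. Here, GI50 denotes the concentration required for 50% inhibition of growth. TGI is the concentration that stops growth completely.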

Tests used:
Experiment in all cases: DTP human tumour cell line panel, 48 h
[1] = test system: HL-60(TB) leukemia
[2] = test system: U251 CNS
[3] = test system: SN12C renal
[4] = test system: SK-MEL-2 melanoma
[5] = test system: BT-549 breast
[6] = test system: SF-295 CNS
[7] = test system: LOX IMVI melanoma
[8] = test system: SW-620 colon
[9] = test system: HS 578T breast
[10] = test system: NCI-H226 lung
[11] = test system: MOLT-4 leukemia
[12] = test system: UACC-257 melanoma

| Compound | TGI [1] [µM] | TGI [2] [µM] | TGI [3] [µM] | TGI [4] [µM] | TGI [5] [µM] | TGI [6] [µM] | TGI [7] [µM] | TGI [8] [µM] | TGI [9] [µM] | TGI [10] [µM] | TGI [11] [µM] | TGI [12] [µM] | GI50 [10] [µM] | GI50 [3] [µM] |
| --- | --- | --- | --- | --- | --- | --- | --- | --- | --- | --- | --- | --- | --- | --- |
| c1ccc(-c2nn(-c3ccccc3)[n+](-c3ccccc3)n2)cc1 | 6.47 | > 100 | > 100 | > 80.1 | > 100 | > 100 | > 92.4 | > 100 | > 100 | > 100 | > 100 | 11.7 |  |  |
| O=C(N/N=C\c1ccc2ccccc2c1)Nc1ccc([N+](=O)[O-])cc1 | > 100 | > 100 | > 59.8 | > 73.5 | > 77.3 | > 68.9 | > 100 | > 100 | > 100 | > 100 | 97.7 | > 75 |  |  |
| N#CC1(C#N)NC(c2ccsc2)C(C#N)(C#N)NC1c1ccsc1 (stereo not given) | > 100 | > 100 | > 100 | > 100 | > 100 | > 100 | > 100 | > 100 | > 100 | > 100 | > 100 | > 100 |  |  |
| COC(=O)/N=[N+](\[O-])C(c1ccc(OC)cc1)C1CCCCC1 (stereo not given) | 2.78 | 20.1 | 11.3 | 31.8 | 43 | 16.4 | > 100 | 24.3 | 40.7 | 26.9 | 31.6 | 25.3 |  |  |
| Cn1c2ccccc2c(=NNc2ccc(C(=O)O)cc2)c2ccccc21 | 48.6 | 41 | 75.3 | 40.7 | 74.9 | 78.4 | 24.1 | 65.3 | 55.9 | 54 | 57.4 | 57 |  |  |
| OC1COC(n2c3ccc(Br)cc3c3ccc4c5ccccc5[nH]c4c32)C(O)C1O (stereo not given) | 8.75 | 32.1 | 16 | 19.8 | 26.3 | 10.6 | 10.4 | 29.4 | 18.1 | 30.3 | 11.2 | 19.9 |  |  |
| COc1ccc(CCNC(=O)Cc2cc(OC)c(OC)cc2CO)cc1OC | > 100 | > 100 | > 100 | > 100 | > 100 | > 100 | > 100 | > 100 | > 100 | > 100 | > 100 | > 100 |  |  |
| CSc1ccc(/C=C2\N=C(c3ccccc3)N(c3nc4ccc(Sc5ccccc5)cc4[nH]3)C2=O)cc1 | 49.4 | 41.3 | > 84.2 | 37 | 50.1 | 50.5 | 41.6 | 52.5 | 58.1 | > 83.1 | 80.9 | 55.6 | 20.6 |  |
| CN(C)c1ccc(/C=C/C=C(/C#N)c2ccccc2)cc1 | 33 | 55.5 | > 100 | > 93 | > 100 | > 100 | > 74.3 | 72.5 | 69.2 | > 100 | > 55.7 | > 100 |  |  |
| COC(=O)c1cc(C#Cc2cc(OC)ccc2OC)ccc1OC | > 100 | > 100 | > 100 | > 100 | > 100 |  | > 100 | > 100 | > 100 | > 100 | 70 | > 100 |  | 37.9 |
| O=[N+]([O-])c1ccc2nc(/C=C(\O)c3ccc(F)cc3)c(/C=C(\O)c3ccc(F)cc3)nc2c1 | 55.7 | 70.5 | > 100 | 45.2 | 91.5 | 57.6 | > 100 | > 100 | > 100 | 89 | 43.5 | > 100 |  |  |
| C1=C\CCCCN2C[C@H]3CCCC/C=C\CCCCN4CC[C@@H]([C@H](CCCCCC/1)C4)[C@H](C3)C2 | 12.1 | 3.41 | 22.9 | 4.56 | 19.1 | 3.53 | 3.22 | 6.71 | 4.34 | 37 | 4.79 | 3.28 |  |  |
| Cn1c(-c2cccs2)cc(-c2cccs2)c1-c1ccsc1 | > 100 | > 100 | > 100 | 98.1 | > 100 | > 100 | > 100 | > 100 | > 100 | > 100 | > 100 | > 100 |  |  |
| Cc1cccc(NC(=S)Nc2ccccc2Cl)n1 | > 100 | > 100 | > 100 | > 100 | > 100 | > 100 | > 100 | > 100 | > 100 | > 100 | > 100 | 74.2 |  |  |
| Cc1cc2c(c(C=NCc3ccccc3)c1)OC1(C=C2)Oc2ccccc2C(=O)N1C (stereo not given) | 60.2 | 80.3 | 78 | 62.6 | 62.5 | > 100 | 34.5 | > 100 | 63.6 | 42.9 | 36.5 | 67 |  |  |
| Cc1ccc(N=C2C(=O)C3=C(OC(C)(C)CC3)c3ccccc32)cc1 | 3.21 | 1.91 | 1.73 | 3.31 | 3.46 | 2.7 |  | 2.14 | > 23.2 | > 20.4 | 3.08 | 1.72 |  |  |
| O=c1[nH]nc(Cc2ccccc2)n1Nc1ccccc1 | > 100 | > 100 | > 100 | > 100 | > 100 | > 100 | > 100 | > 100 | > 100 | > 100 | > 100 | > 100 |  |  |
| COC(=O)c1c(C)cccc1/C=C1\Cc2cc(C)cc(C)c2C1=O | > 100 | 48.2 | > 100 | 57.3 | > 100 | > 100 | > 100 | > 100 | 69.7 | > 100 | > 100 | > 100 |  |  |
| Cc1ccc2c(n1)C(=O)c1ccccc1C2=O | 45.7 | 97.7 | > 88.2 | > 89 | 89 | > 83.3 | 53.1 | > 95.4 | > 100 | > 100 | > 88.7 | 37.9 |  |  |

| Compound | TGI [1] [µM] | TGI [2] [µM] | TGI [3] [µM] | TGI [4] [µM] | TGI [5] [µM] | TGI [6] [µM] | TGI [7] [µM] | TGI [8] [µM] | TGI [9] [µM] | TGI [10] [µM] | TGI [11] [µM] | TGI [12] [µM] | GI50 [10] [µM] | GI50 [3] [µM] |
| --- | --- | --- | --- | --- | --- | --- | --- | --- | --- | --- | --- | --- | --- | --- |
| COCCOCCOC1=C(Cl)C(=O)c2c(O)ccc(O)c2C1=O | 1.89 | 17.4 | 3.7 | 4.86 | 4.01 | 27.1 | 4.59 | 0.562 | 7.9 | 35.4 | 2.37 | 4.04 |  |  |
| CCC(CCCC[C@@H]1CC[C@H]2CC(=O)C[C@@H]12)OC (stereo not given in full) | > 100 | > 100 | > 100 | > 100 | > 100 | > 100 | > 100 | > 100 | > 100 | > 100 | > 100 | > 100 |  |  |
| CN(CCc1ccc(N)cc1)[C@H]1CCCC[C@H]1N1CCCC1 | > 100 | > 100 | > 100 | > 100 | > 100 | > 100 | > 100 | > 100 | > 100 | > 100 | > 100 | > 100 |  |  |
| COc1cccc(NC(=O)CC(=O)N2N=C(C)C(N=Nc3ccc(S(=O)(=O)c4ccc(N=NC5C(=O)N(C(=O)CC(=O)Nc6cccc(OC)c6)N=C5C)cc4)cc3)C2=O)c1 (stereo not given) | > 100 | > 100 | > 100 | > 100 | > 100 | > 100 | > 100 | > 100 | > 100 | > 100 | > 100 | > 100 |  |  |
| COc1ccc(-c2cc(-c3cc(OC)c(OC)c(OC)c3)cc(-c3cc4ccccc4oc3=O)n2)cc1 | > 100 | 12.5 | 49.7 | 62.2 | 27.8 | 19.4 | > 100 | > 100 | 7.14 | 22.2 | > 100 | 63.3 |  |  |
| CC(=O)Nc1ccc2c3c(cc(O)c2c1)N(C(=O)CCCCC(=O)Nc1ccc2c4c(cc(O)c2c1)N(C(=O)OC(C)(C)C)CC4CCl)CC3CCl (stereo not given) | 12.4 | 10 | 21.8 | 3.49 | > 27.1 | > 56.8 | > 34.6 | > 100 | > 26.6 | 5.55 | > 34.4 | 5.16 |  |  |
| COc1ccc(N=C(Nc2ccc(OC)cc2)C(=Nc2ccc(OC)cc2)Nc2ccc(OC)cc2)cc1 | > 100 | > 100 | > 100 | > 100 | > 100 | > 100 | > 100 | > 100 | > 100 | > 100 | > 100 | > 100 |  |  |
| CCCCOC(=O)C(O)Cc1ccoc1 (stereo not given) | > 100 | > 100 | > 100 | > 100 | > 100 | > 100 | > 100 | > 100 | > 100 | > 100 | > 100 |  |  |  |
| Clc1ccc(C2NN=C3c4ccccc4OCC32)cc1 (stereo not given) | 11.9 | > 56.8 | 22.1 | 15.5 | 79.3 |  | 27.6 | > 25.3 | 14.6 | 14.2 | 26.9 | 87.4 |  |  |
| O=C1CCCCc2cccc(O)c21 | > 100 | > 100 | > 100 | > 100 | > 100 | > 100 | > 100 | > 100 | > 100 | > 100 | > 100 | > 100 |  |  |
| COc1cccc(-c2cc(=O)c3c(C)ccnc3[nH]2)c1 | 0.0532 | > 100 | > 100 | > 100 | > 100 | > 100 | > 100 | > 100 | > 100 | 0.0742 | > 100 |  |  |  |
| C=CC[C@H]1[C@H](O[Si](C)(C)C(C)(C)C)C=CC(=O)[C@@H]1CC(=O)N(Cc1ccccc1)Cc1ccccc1 | 36.5 | > 100 | 90.4 | 38.3 | 51.6 | > 100 | 26.9 | > 100 | > 100 | 46.7 | > 100 | 65.8 |  |  |
| CNC(=S)N/N=C/c1cccc(C)n1 | > 75.9 | > 100 | 64.1 | > 100 | 86.3 | > 100 | > 73.8 | > 100 | > 100 | > 83.9 | > 87 | > 100 |  |  |
| O=[N+]([O-])c1cccnc1NCC1(CO)CC(Cc2ccccc2)C1 (stereo not given) | > 100 | > 100 | > 100 | > 100 | > 100 | > 100 | > 100 | > 100 | > 100 | > 100 | > 100 | > 100 |  |  |
| CC12Cc3cc4c(cc3C1(c1ccc([N+](=O)[O-])cc1)OCCO2)OCO4 (stereo not given) | > 100 | > 100 | > 100 | > 100 | 91.9 | 57.7 | > 100 | > 100 | 86.4 | 86.7 | > 100 | > 100 |  |  |
| COc1cc2c(cc1OC)CC(N=[N+]=[N-])c1cc(OC)c(OC)cc1/C=C\2 (stereo not given) | > 100 | > 100 | > 100 | > 100 | 38.8 | > 100 | > 100 | > 100 | > 100 | > 100 | > 100 | > 100 |  |  |
| O=c1oc2ccccc2n1CCN1CCCCC1 | > 100 | > 100 | > 100 | > 100 | > 100 | > 100 | > 100 | > 100 | > 100 | > 100 | > 100 | > 100 |  |  |
| CSC1=C(c2ccc(Cl)cc2)SC(N2CCCCC2)N1c1ccc([N+](=O)[O-])cc1 (stereo not given) | 97.4 | 56.4 |  | 54.3 | > 100 | 61.2 | > 100 | > 100 | > 100 | > 100 | 75.9 | 85.8 |  |  |
